The Deep4Chem optical property database
Values belong to the compound of their own block, whether it stands above or below them.

Assay: photoluminescence quantum yield (fraction); solvent given as SMILES

- photoluminescence quantum yield (in ClC(Cl)Cl): 0.5
SMILES: CCCN1c2ccccc2Sc2cc(/C=C\c3cc(=O)oc4ccccc34)ccc21

- photoluminescence quantum yield (in O): 0.25
SMILES: N#Cc1c(N2CCCC2)cc(-c2ccccc2)c2c1-c1cccc3cccc-2c13

- photoluminescence quantum yield (in CCO): 0.0473
- photoluminescence quantum yield (in ClCCl): 0.0242
SMILES: Oc1ccc(-c2cccs2)cc1-c1nc2ccccc2s1

- photoluminescence quantum yield (in ClCCl): 0.43
SMILES: Cc1ccc(C#Cc2ccc3nc4ccc(C#Cc5ccc(C)cc5)cn4c(=O)c3c2)cc1

- photoluminescence quantum yield (in ClCCl): 0.07
SMILES: CC1=NN(c2cccc3ccccc23)[B-](F)(F)[n+]2ccccc21

- photoluminescence quantum yield (in ClC(Cl)Cl): 0.61
SMILES: C(#Cc1ccc(C#Cc2ccc(C#Cc3ccccc3)cc2)cc1)c1ccccc1

- photoluminescence quantum yield (in ClCCl): 0.52
SMILES: CCCC1=C(CCC)c2cccc3c2c(cc2nc4ccccc4nc23)O1

- photoluminescence quantum yield (in ClC(Cl)Cl): 0.39
SMILES: CC(C)(C)NC(=O)c1cc2ccc3cccc4ccc(c1C(=O)NC(C)(C)C)c2c34

- photoluminescence quantum yield (in ClC(Cl)Cl): 0.77
SMILES: CCCN1c2ccccc2Sc2cc(/C=C\c3cc(=O)oc4cc(C)c(Cl)cc34)ccc21

- photoluminescence quantum yield (in CC(C)O): 0.11
SMILES: CC[n+]1c(C=C2C(=O)C(C=C3N(C)c4ccccc4C3(C)C)=C2[O-])[se]c2ccccc21

- photoluminescence quantum yield (in C1CCOC1): 5e-05
SMILES: C1=Cc2ccccc2C(=Cc2ccc(C=C3c4ccccc4C=Cc4ccccc43)cc2)c2ccccc21

- photoluminescence quantum yield (in CC#N): 0.28
- photoluminescence quantum yield (in CCCCCC): 0.46
SMILES: C(=C\c1ccc2ccccc2c1)/c1ccc(Nc2ccccc2)cc1

- photoluminescence quantum yield (in C1CCOC1): 0.65
- photoluminescence quantum yield (in CC#N): 0.26
- photoluminescence quantum yield (in CCOC(C)=O): 0.58
- photoluminescence quantum yield (in CN(C)C=O): 0.32
- photoluminescence quantum yield (in ClCCl): 0.5
SMILES: CCn1c2ccc(/C=C/c3ccc4c(c3)c3cc(-c5nc6ccccc6s5)ccc3n4CC)cc2c2cc(-c3nc4ccccc4s3)ccc21

- photoluminescence quantum yield (in ClCCl): 0.06
SMILES: c1ccc2c(c1)-c1sc3ccccc3c1C21c2ccccc2-c2sc3ccccc3c21

- photoluminescence quantum yield (in ClCCl): 0.45
SMILES: COc1ccc(-c2c3cc4ccccc4cc3c(C#Cc3ccccc3)c3cc4cc(C)sc4cc23)cc1

- photoluminescence quantum yield (in C1CCCCC1): 0.008
- photoluminescence quantum yield (in C1CCOC1): 0.01
- photoluminescence quantum yield (in C1COCCO1): 0.013
- photoluminescence quantum yield (in CC#N): 0.007
- photoluminescence quantum yield (in CCO): 0.007
- photoluminescence quantum yield (in CN(C)C=O): 0.016
- photoluminescence quantum yield (in CO): 0.008
- photoluminescence quantum yield (in COCCOC): 0.007
- photoluminescence quantum yield (in CS(C)=O): 0.018
- photoluminescence quantum yield (in O): 0.011
- photoluminescence quantum yield (in OCC(O)CO): 0.068
- photoluminescence quantum yield (in OCCO): 0.022
SMILES: CN(C)c1c2ccccc2cc2ccccc12

- photoluminescence quantum yield (in CO): 0.0644
SMILES: C(=C\c1c[nH]c2ccc(Oc3ccccc3)cc12)/C1=[NH+]c2cccc3cccc1c23

- photoluminescence quantum yield (in ClCCl): 0.75
SMILES: CCCCn1c(-c2ccc(-c3nnc(-c4ccc5ccccc5c4)o3)cc2)nc2c3ccccc3c3ccccc3c21

- photoluminescence quantum yield (in C1CCOC1): 0.64
SMILES: F[Si-](F)(c1c2ccccc2cc2ccccc12)(c1c2ccccc2cc2ccccc12)c1c2ccccc2cc2ccccc12

Second part, the compound before the results:

SMILES: CCCCC1=Cc2c3ccc4cccc5ccc(c6cc(-c7ccccc7)n(c26)P1(=O)c1ccccc1)c3c45 (stereo not given)
- photoluminescence quantum yield (in C1CCCCC1): 0.64
- photoluminescence quantum yield (in C1CCOC1): 0.51
- photoluminescence quantum yield (in C1COCCO1): 0.55
- photoluminescence quantum yield (in CC#N): 0.54
- photoluminescence quantum yield (in CC(C)=O): 0.56
- photoluminescence quantum yield (in CO): 0.51
- photoluminescence quantum yield (in Cc1ccccc1): 0.6
- photoluminescence quantum yield (in ClC(Cl)Cl): 0.56
- photoluminescence quantum yield (in ClCCl): 0.57

SMILES: Cn1ccc(-n2cncn2)nc1=O
- photoluminescence quantum yield (in O): 0.114

SMILES: O=S1(=O)C(c2ccsc2)=C(c2ccsc2)c2ccccc21
- photoluminescence quantum yield (in C1CCOC1): 0.005

SMILES: CC(C)(C)NC1=C2C=CC=[N+]2[B-](F)(F)n2cccc21
- photoluminescence quantum yield (in C1CCCCC1): 0.63
- photoluminescence quantum yield (in CC(C)=O): 0.002
- photoluminescence quantum yield (in CCO): 0.002
- photoluminescence quantum yield (in CCOC(C)=O): 0.012
- photoluminescence quantum yield (in CO): 0.001
- photoluminescence quantum yield (in OCC(F)(F)F): 0.006

SMILES: CCCCCc1ccc(C#Cc2cc(C#Cc3ccc(CCCCC)cc3)c3ccc4c(C(=O)c5ccccc5)cc(C#Cc5ccc(CCCCC)cc5)c5ccc2c3c54)cc1
- photoluminescence quantum yield (in ClCCl): 0.43

SMILES: CC/[NH+]=c1\cc2oc3cc(NCCC(=O)NCCCCC(NC(C)=O)C(=O)OC)c4ccccc4c3nc-2cc1C (stereo not given)
- photoluminescence quantum yield (in CCO): 0.32
- photoluminescence quantum yield (in O): 0.46

SMILES: CCCCc1ccc2ccc3c(CCCC)cc(CCCC)c4ccc1c2c34
- photoluminescence quantum yield (in CCCCCC): 0.49
- photoluminescence quantum yield (in CO): 0.6
- photoluminescence quantum yield (in ClCCl): 0.43

SMILES: c1ccc(-c2nc(-c3ccccc3)nc(-c3cc(-n4c5ccccc5c5ccccc54)c(-n4c5ccccc5c5ncccc54)c(-n4c5ccccc5c5ccccc54)c3)n2)cc1
- photoluminescence quantum yield (in O=P(c1ccccc1)(c1ccccc1)c1ccc2oc3ccc(P(=O)(c4ccccc4)c4ccccc4)cc3c2c1): 0.79

SMILES: CC1=C(c2ccccc2)C(C)=[N+]2C1=C(c1ccccc1)c1c(C)c(-c3ccccc3)c(C)n1[B-]2(F)F
- photoluminescence quantum yield (in Cc1ccccc1): 0.325

SMILES: COC(=O)c1nc2c(N(C)C)nc(N)nc2n1Cc1ccccc1
- photoluminescence quantum yield (in C1COCCO1): 0.95
- photoluminescence quantum yield (in CC#N): 0.83
- photoluminescence quantum yield (in CO): 0.39
- photoluminescence quantum yield (in ClCCl): 0.95

SMILES: CC(C)(C)c1ccc2c(c1)c1cc(C(C)(C)C)ccc1n2-c1cc(C(=O)c2cccnc2)cc(-n2c3ccc(C(C)(C)C)cc3c3cc(C(C)(C)C)ccc32)c1
- photoluminescence quantum yield (in Cc1ccccc1): 0.07
- photoluminescence quantum yield (in c1cc(-c2cccc(-n3c4ccccc4c4ccccc43)c2)cc(-n2c3ccccc3c3ccccc32)c1): 0.92

SMILES: CCN(CC)c1ccc(-c2c3c(n4ccc(C(C)=O)cc24)C(=O)N(CCCNC(=O)OC(C)(C)C)C3)cc1
- photoluminescence quantum yield (in CO): 0

SMILES: Cc1cc(C)c(B(c2cc3ccc4cccc5ccc(c2)c3c45)c2c(C)cc(C)cc2C)c(C)c1
- photoluminescence quantum yield (in Cc1ccccc1): 0.68

SMILES: C[C@]12SC(=O)C=C1c1nc(-c3ccc(Cl)cc3Cl)[nH]c1C1=CC(=O)S[C@@]12C
- photoluminescence quantum yield (in CC#N): 0.11

SMILES: C(=C(c1ccccc1)c1ccccc1)c1ccc(-c2cc(-c3ccc(C=C(c4ccccc4)c4ccccc4)cc3)c(-c3ccc(C=C(c4ccccc4)c4ccccc4)cc3)cc2-c2ccc(C=C(c3ccccc3)c3ccccc3)cc2)cc1
- photoluminescence quantum yield (in C1CCOC1): 0.0282

SMILES: COc1cc2c(cc1-c1ccc(Cl)cc1)Cc1c3c(c4c(c1-2)-c1cc(OC)c(-c2ccc(Cl)cc2)cc1C4)C(=O)N(CCC(C)C)C3=O
- photoluminescence quantum yield (in C1CCOC1): 0.52

SMILES: Nc1ccc2c(c1)C(=O)c1ccccc1-2
- photoluminescence quantum yield (in C1CCCCC1): 0.0086
- photoluminescence quantum yield (in c1ccccc1): 0.00099

SMILES: CC(C)(C)c1cc(-c2ccc3c(-c4cc(C(C)(C)C)cc(C(C)(C)C)c4)cc4c5cc(-c6cc(C(C)(C)C)cc(C(C)(C)C)c6)ccc5c(-c5cc(C(C)(C)C)cc(C(C)(C)C)c5)cc4c3c2)cc(C(C)(C)C)c1
- photoluminescence quantum yield (in ClCCl): 0.609

SMILES: CCCCC(CC)COc1ccc2nc(-c3ccc(-c4c(C)noc4C)s3)sc2c1 (stereo not given)
- photoluminescence quantum yield (in ClCCl): 0.72

SMILES: COC(=O)C12N=N[C@](C(=O)OC)(C3C4CCC(C4)C31)C1[C@@H]3CC[C@@H](C3)[C@H]12 (stereo not given in full)
- photoluminescence quantum yield (in CC#N): 0.09

SMILES: C1=Cc2ccc(N(c3ccccc3)c3ccccc3)cc2C2(c3cc(N(c4ccccc4)c4ccccc4)ccc31)c1ccccc1-c1ccccc12
- photoluminescence quantum yield (in ClCCl): 0.9

SMILES: O=C1c2ccccc2-c2cccc(O)c21
- photoluminescence quantum yield (in C1CCCCC1): 0.0129
- photoluminescence quantum yield (in C1COCCO1): 0.0284
- photoluminescence quantum yield (in CC#N): 0.053
- photoluminescence quantum yield (in CC(C)O): 0.024
- photoluminescence quantum yield (in CCCCO): 0.022
- photoluminescence quantum yield (in CCCO): 0.021
- photoluminescence quantum yield (in CCO): 0.0197
- photoluminescence quantum yield (in CCOC(C)=O): 0.0383
- photoluminescence quantum yield (in CCOCC): 0.022
- photoluminescence quantum yield (in CO): 0.012

SMILES: O=S(=O)(c1ccc(N(c2ccccc2)c2ccccc2)cc1)c1ccc(S(=O)(=O)c2ccc(N(c3ccccc3)c3ccccc3)cc2)cc1
- photoluminescence quantum yield (in Cc1ccccc1): 0.64

SMILES: CCOC(=O)C(C(=O)OCC)C1=[N+]2C(=C(c3ccc(C)cc3)c3ccc(Cl)n3[B-]2(F)F)C=C1
- photoluminescence quantum yield (in C1CCCCC1): 0.46
- photoluminescence quantum yield (in C1CCOC1): 0.48
- photoluminescence quantum yield (in CCOC(C)=O): 0.4
- photoluminescence quantum yield (in CO): 0.28
- photoluminescence quantum yield (in Cc1ccccc1): 0.79
- photoluminescence quantum yield (in ClC(Cl)Cl): 0.52

SMILES: CCCCCCCCCCC(CCCCCCCCCC)Cn1c2cc(-c3ccc(C(C)(C)C)cc3)c3cccc4c5ccc6c7cc(-c8cc(C(C)(C)C)cc(C(C)(C)C)c8)n8c7c(c7cc1c(c5c76)c2c34)=C1C=CC(c2cc(C(C)(C)C)cc(C(C)(C)C)c2)=[N+]1[B-]8(F)F
- photoluminescence quantum yield (in Cc1ccccc1): 0.008

SMILES: C1=Nc2cccc3cccc(c23)N1
- photoluminescence quantum yield (in CC#N): 0.0013
- photoluminescence quantum yield (in CO): 0.0005
- photoluminescence quantum yield (in CS(C)=O): 0.0031
- photoluminescence quantum yield (in Cc1ccccc1): 0.005

SMILES: Cc1nc2c(ccc3c2sc(/C=C/c2ccc(N(C)C)cc2)[n+]3C)s1
- photoluminescence quantum yield (in ClC(Cl)Cl): 0.02

SMILES: N#Cc1ccc(-c2cc3c(ccc4sccc43)s2)cc1
- photoluminescence quantum yield (in ClCCl): 0.22

SMILES: O=Cc1cc(O)ccc1O
- photoluminescence quantum yield (in C1CCOC1): 0.0001
- photoluminescence quantum yield (in C1COCCO1): 0.0001
- photoluminescence quantum yield (in CC#N): 0.0001
- photoluminescence quantum yield (in CC(C)=O): 0.01
- photoluminescence quantum yield (in CCCO): 0.03
- photoluminescence quantum yield (in CCO): 0.04
- photoluminescence quantum yield (in CN(C)C=O): 0.06
- photoluminescence quantum yield (in CN(C)P(=O)(N(C)C)N(C)C): 0.14
- photoluminescence quantum yield (in CNC=O): 0.14
- photoluminescence quantum yield (in CO): 0.0001
- photoluminescence quantum yield (in CS(C)=O): 0.17
- photoluminescence quantum yield (in NC=O): 0.07

SMILES: COC(=O)c1ccc(/C=C2\C=C(c3ccc([N+](=O)[O-])cc3)OC2=O)cc1
- photoluminescence quantum yield (in C1COCCO1): 0.002

SMILES: COc1ccc(C2=N/C(=C\c3ccc(C#N)cc3)C(=O)N2)cc1OC
- photoluminescence quantum yield (in C1COCCO1): 0.189

SMILES: O=P1(c2ccccc2)C2=C(c3ccccc31)[Si](c1ccccc1)(c1ccccc1)c1cc(N(c3ccccc3)c3ccccc3)ccc12 (stereo not given)
- photoluminescence quantum yield (in CC#N): 0.52
- photoluminescence quantum yield (in CO): 0.17
- photoluminescence quantum yield (in Cc1ccccc1): 0.86

SMILES: C[Si]1(c2ccccc2)C(c2ccc3c(c2)c2ccccc2n3-c2ccccc2)=C(c2ccccc2)C(c2ccccc2)=C1c1ccc2c(c1)c1ccccc1n2-c1ccccc1
- photoluminescence quantum yield (in C1CCOC1): 0.04

SMILES: COc1cc2c(cc1OC)C1=C[C@H](c3ccc(C)cc3)C3(C(C#N)=C(C#N)N1CC2)c1cc(Br)ccc1-c1ccc(Br)cc13
- photoluminescence quantum yield (in ClCCl): 0.00023

SMILES: CCOC(=O)CC[N+]1=c2cc3c(cc2CCC1)=Cc1c(c2cc4c5c(c2oc1=O)CCCN5CCC4)O3
- photoluminescence quantum yield (in CC#N): 0.024
- photoluminescence quantum yield (in CO): 0.017
- photoluminescence quantum yield (in ClCCl): 0.125
- photoluminescence quantum yield (in O): 0.002
